The text below walks through data of article PMC5562305, “Impact of novel palmitoylated prolactin-releasing peptide analogs on metabolic changes in mice with diet-induced obesity” (PLoS ONE, 2017).

Common to all, as to assay type: in vivo, C57BL/6 mice
Experiment [1] is described as follows: Hormonal and biochemical (metabolic) parameters in blood of DIO mice. Particulars: mean ± SEM; for Glucose: blood; for Glucose / FFA / Insulin / Leptin / T Chol (total cholesterol) / Triglycerides: 5 mg/kg SC twice a day, 2 weeks; for HOMA index: fasting glucose x fasting insulin / 22.5, 2 weeks; for FFA / Insulin / Leptin / T Chol (total cholesterol) / Triglycerides: plasma. From the text: From 8 weeks of age, the mice were fed in house made high-fat (HF) diet to induce obesity. […] After twelve weeks of HF-diet feeding, two weeks of SC administration of lipidized PrRP analogs was initiated while the mice were kept on the HF diet. The following experimental groups were established: […] Food intake and BW were monitored daily during the dosing period. At the end of the experiment, the mice were sacrificed by decapitation. The trunk blood was collected, and the blood plasma was separated and stored at -20°C. The visceral adipose tissues (VAT) (from abdominal part), subcutaneous adipose tissues (SCAT) (all adipose tissue depots under the skin), perirenal adipose tissues, interscapular brown adipose tissues (BAT), and livers of all of the mice were dissected, weighed, flash-frozen in liquid nitrogen, and stored at -70°C for later extraction of RNA. The plasma insulin concentrations were measured using an RIA assay (Millipore, St. Charles, MI, USA), and the leptin concentrations were determined by ELISA (Millipore, St. Charles, MI, USA). The blood glucose levels were measured using a Glucocard glucometer (Arkray, Kyoto, Japan). The plasma triglyceride levels were measured using a quantitative enzymatic reaction (Sigma, St. Louis, MO, USA), and the free fatty acids (FFA) levels were determined using a colorimetric assay (Roche, Mannheim, Germany). Cholesterol was determined by colorimetric assay (Erba Lachema, Brno, Czech Republic). All measurements were performed according to the manufacturer's instructions.

A short description of experiment [2]: Adipose tissue and liver weights in DIO mice at the end of the experiment. To be noted: 5 mg/kg SC twice a day, 2 weeks, n = 10, mean ± SEM. From the text:
From 8 weeks of age, the mice were fed in house made high-fat (HF) diet to induce obesity. […] After twelve weeks of HF-diet feeding, two weeks of SC administration of lipidized PrRP analogs was initiated while the mice were kept on the HF diet. The following experimental groups were established: […] Food intake and BW were monitored daily during the dosing period. At the end of the experiment, the mice were sacrificed by decapitation. The trunk blood was collected, and the blood plasma was separated and stored at -20°C. The visceral adipose tissues (VAT) (from abdominal part), subcutaneous adipose tissues (SCAT) (all adipose tissue depots under the skin), perirenal adipose tissues, interscapular brown adipose tissues (BAT), and livers of all of the mice were dissected, weighed, flash-frozen in liquid nitrogen, and stored at -70°C for later extraction of RNA.

Experiment [3] is described as follows: Body weight of DIO mice during 2-week SC treatment. To be noted: for Decrease of average BW at the end of the experiment: 5 mg/kg SC twice a day, 2 weeks. The text has this: Inbred C57BL/6 male mice that were 3 weeks old were obtained from Charles River Laboratories (Sulzfeld, Germany). […] From 8 weeks of age, the mice were fed in house made high-fat (HF) diet to induce obesity. […] After twelve weeks of HF-diet feeding, two weeks of SC administration of lipidized PrRP analogs was initiated while the mice were kept on the HF diet. The following experimental groups were established: […] Food intake and BW were monitored daily during the dosing period.

Structures are written as SMILES. Starred links: 1 amine or outer side, 2 acyl side, 3 side chain; linkers in the order of their positions; H or OH if unused. Residues, ends and D or L forms follow the SMILES beside them. Groups on a side chain read outwards from the residue. *: point of attachment. TTDA(Palmitoyl) = CCCCCCCCCCCCCCCC(=O)NCCCOCCOCCOCCCN*; γGlu = O=C(O)[C@H](CCC(=O)[*:2])N[*:1]; Palmitoyl = CCCCCCCCCCCCCCCC(=O)*; Suc = O=C(CCC(=O)[*:2])[*:1]

In experiment [1], `CCCCCCCCCCCCCCCC(=O)NCCCOCCOCCOCCCNC(=O)CCC(=O)NCCCC[C@H](NC(=O)[C@@H](NC(=O)[C@H](CCC(=O)O)NC(=O)[C@H](CCSC)NC(=O)[C@H](CO)NC(=O)[C@H](Cc1c[nH]cn1)NC(=O)[C@H](CCCNC(=N)N)NC(=O)[C@H](Cc1c[nH]cn1)NC(=O)[C@@H](NC(=O)[C@H](CCCNC(=N)N)NC(=O)[C@@H](N)CO)[C@@H](C)O)[C@@H](C)CC)C(=O)N[C@H](C(=O)N1CCC[C@H]1C(=O)N[C@@H](CC(=O)O)C(=O)N[C@H](C(=O)N[C@@H](CC(N)=O)C(=O)N1CCC[C@H]1C(=O)N[C@@H](C)C(=O)N[C@@H](Cc1c[nH]c2ccccc12)C(=O)N[C@@H](Cc1ccc(O)cc1)C(=O)N[C@@H](C)C(=O)N[C@@H](CO)C(=O)N[C@@H](CCCNC(=N)N)C(=O)NCC(=O)N[C@H](C(=O)N[C@@H](CCCNC(=N)N)C(=O)N1CCC[C@H]1C(=O)N[C@H](C(=O)NCC(=O)N[C@@H](CCCNC(=N)N)C(=O)N[C@@H](Cc1ccccc1)C(N)=O)C(C)C)[C@@H](C)CC)[C@@H](C)CC)[C@@H](C)O` [analog 2] (H-SRTHRHSMEIK([Suc-TTDA(Palmitoyl)])TPDINPAWYASRGIRPVGRF-NH2; N-terminus assumed) returned a Glucose of 7.26 ± 0.31 mmol/L, an HOMA index of 86.27 ± 0.64, an FFA of 0.52 ± 0.02 mmol/L and an Insulin of 1.55 ± 0.27 ng/mL. Moreover, in experiment [1], the Leptin worked out at 23.64 ± 3.54 ng/mL, the “T Chol (total cholesterol)” value amounted to 3.96 ± 0.26 mmol/L and the Triglycerides is 0.44 ± 0.04 mg/mL. In experiment [2], the Liver weight was determined as 1.31 ± 0.06 g, the “Perirenal AT” value was 2.73 ± 0.17 % of BW and the “Total AT” value is 15.70 ± 0.53 % of BW. Also, the “Decrease of average BW at the end of the experiment” value in experiment [3] stood at 11.75%.

In experiment [1], `CCCCCCCCCCCCCCCC(=O)N[C@@H](CCC(=O)NCCCC[C@H](NC(=O)[C@@H](NC(=O)[C@H](CCC(=O)O)NC(=O)[C@H](CCSC)NC(=O)[C@H](CO)NC(=O)[C@H](Cc1c[nH]cn1)NC(=O)[C@H](CCCNC(=N)N)NC(=O)[C@H](Cc1c[nH]cn1)NC(=O)[C@@H](NC(=O)[C@H](CCCNC(=N)N)NC(=O)[C@@H](N)CO)[C@@H](C)O)[C@@H](C)CC)C(=O)N[C@H](C(=O)N1CCC[C@H]1C(=O)N[C@@H](CC(=O)O)C(=O)N[C@H](C(=O)N[C@@H](CC(N)=O)C(=O)N1CCC[C@H]1C(=O)N[C@@H](C)C(=O)N[C@@H](Cc1c[nH]c2ccccc12)C(=O)N[C@@H](Cc1ccc(O)cc1)C(=O)N[C@@H](C)C(=O)N[C@@H](CO)C(=O)N[C@@H](CCCNC(=N)N)C(=O)NCC(=O)N[C@H](C(=O)N[C@@H](CCCNC(=N)N)C(=O)N1CCC[C@H]1C(=O)N[C@H](C(=O)NCC(=O)N[C@@H](CCCNC(=N)N)C(=O)N[C@@H](Cc1ccccc1)C(N)=O)C(C)C)[C@@H](C)CC)[C@@H](C)CC)[C@@H](C)O)C(=O)O` [analog 1] (H-SRTHRHSMEIK([γGlu-Palmitoyl])TPDINPAWYASRGIRPVGRF-NH2; N-terminus assumed) had a Glucose of 7.12 ± 0.36 mmol/L, an HOMA index of 85.70 ± 0.39, an FFA of 0.54 ± 0.03 mmol/L and an Insulin of 1.57 ± 0.14 ng/mL. For the same compound, in experiment [1], the Leptin is 22.67 ± 2.72 ng/mL, the “T Chol (total cholesterol)” value came to 4.26 ± 0.22 mmol/L and the Triglycerides was 0.44 ± 0.03 mg/mL. Also, in experiment [2], the Liver weight is given as 1.27 ± 0.05 g, the “Perirenal AT” value was 2.72 ± 0.11 % of BW and the “Total AT” value is listed as 14.59 ± 0.32 % of BW. In addition, the “Decrease of average BW at the end of the experiment” value in experiment [3] turned out to be 12%.

In experiment [1], `CCCCCCCCCCCCCCCC(=O)NCCCOCCOCCOCCCNC(=O)CCC(=O)NCCCC[C@H](NC(=O)[C@@H](NC(=O)[C@H](CCC(=O)O)NC(=O)[C@H](CCSC)NC(=O)[C@H](CO)NC(=O)[C@H](Cc1c[nH]cn1)NC(=O)[C@H](CCCNC(=N)N)NC(=O)[C@H](Cc1c[nH]cn1)NC(=O)[C@@H](NC(=O)[C@H](CCCNC(=N)N)NC(=O)[C@H](CO)NC(=O)CCC(=O)NCCCOCCOCCOCCCNC(=O)CCCCCCCCCCCCCCC)[C@@H](C)O)[C@@H](C)CC)C(=O)N[C@H](C(=O)N1CCC[C@H]1C(=O)N[C@@H](CC(=O)O)C(=O)N[C@H](C(=O)N[C@@H](CC(N)=O)C(=O)N1CCC[C@H]1C(=O)N[C@@H](C)C(=O)N[C@@H](Cc1c[nH]c2ccccc12)C(=O)N[C@@H](Cc1ccc(O)cc1)C(=O)N[C@@H](C)C(=O)N[C@@H](CO)C(=O)N[C@@H](CCCNC(=N)N)C(=O)NCC(=O)N[C@H](C(=O)N[C@@H](CCCNC(=N)N)C(=O)N1CCC[C@H]1C(=O)N[C@H](C(=O)NCC(=O)N[C@@H](CCCNC(=N)N)C(=O)N[C@@H](Cc1ccccc1)C(N)=O)C(C)C)[C@@H](C)CC)[C@@H](C)CC)[C@@H](C)O` [analog 3] ({TTDA(Palmitoyl)-Suc}-SRTHRHSMEIK([Suc-TTDA(Palmitoyl)])TPDINPAWYASRGIRPVGRF-NH2) registered a Glucose of 7.91 ± 0.46 mmol/L, an HOMA index of 163.13 ± 1.06, an FFA of 0.62 ± 0.03 mmol/L and an Insulin of 2.69 ± 0.30 ng/mL. For the same compound, in experiment [1], the Leptin stood at 40.30 ± 5.57 ng/mL, the “T Chol (total cholesterol)” value is 4.86 ± 0.17 mmol/L and the Triglycerides was 0.63 ± 0.05 mg/mL. In experiment [2], the Liver weight is on record as 1.58 ± 0.09 g, the “Perirenal AT” value was 3.09 ± 0.16 % of BW and the “Total AT” value is listed as 16.13 ± 0.38 % of BW. Also, the “Effect on BW” value in experiment [3] (two weeks of SC treatment, 5 mg/kg twice a day, in words) is “did not have any significant effects”.
